Experimental findings from patent publication US20180352841A1, “COMPOSITION HAVING RICH-TASTE IMPARTING FUNCTION” (AJINOMOTO CO., INC., priority 2016, published 2018) are described below.

Structures are written as SMILES.

A short description of assay [1]: Organoleptic evaluation of coffee-like thickness in milk coffee with 0.2 ppm γ-Glu-Val-Gly (Example 1). As to conditions: for Coffee-like thickness (initial taste) / Coffee-like thickness (middle to aftertaste): milk coffee + 0.2 ppm γ-Glu-Val-Gly (control sample = score 0); for Coffee-like thickness (initial taste): 0 to 1 second after drinking, score 0 to 3 (0 no effect, 1 weakly effective, 2 effective, 3 strongly effective), 2 to 4 panelists, ingredient ppm: succinic acid 5, proline 12.5, KH2PO4 3, K2HPO4 12.5, L-tartaric acid 6, adipic acid 25, citric acid 3.5, CaCl2 50, MgCl2 12.5, DL-malic acid 3, trisodium citrate 0.8, sodium fumarate 1.5; for Coffee-like thickness (middle to aftertaste): 1 to 5 seconds after drinking, score 0 to 3, ingredient ppm as in Table 1 c0 (succinic acid 5, proline 12.5, KH2PO4 3, K2HPO4 12.5, L-tartaric acid 6, adipic acid 25, citric acid 3.5, CaCl2 50, MgCl2 12.5, DL-malic acid 3, trisodium citrate 0.8, sodium fumarate 1.5); for Thickness-enhancing effect for the initial taste: milk coffee + 0.2 ppm γ-Glu-Val-Gly, summary of Table 1. As for the experimental part:
As an evaluation system, milk coffee (“Birdy Robusta”, Ajinomoto Co., (Thailand) Ltd.) was used. To this milk coffee, 0.2 ppm of γ-Glu-Val-Gly was added, to prepare a control sample.
Organoleptic evaluation was performed by 2 to 4 persons of special panelists for strength of “coffee-like thickness” of each sample, to determine thickness-enhancing effects (thickness-boosting effect) of the ingredients to be evaluated.

Assay [2] can be described thus: Organoleptic evaluation of coffee-like thickness in milk coffee with 0.8 ppm γ-Glu-Abu (Example 3). As to conditions: for thickness-enhancing effect for initial taste: milk coffee + 0.8 ppm γ-Glu-Abu, summary of Table 3; for Coffee-like thickness (initial taste) / Coffee-like thickness (middle to aftertaste): milk coffee + γ-Glu-Abu 0.8 ppm (control = score 0), score 0 to 3, L-tartaric acid 6 ppm, adipic acid 25 ppm, citric acid 3.5 ppm; for Coffee-like thickness (initial taste): 0 to 1 second; for Coffee-like thickness (middle to aftertaste): 1 to 5 seconds. As for the experimental part: (§1) Organoleptic evaluation was performed by 2 to 4 persons of special panelists for strength of “coffee-like thickness” of each sample, to determine thickness-enhancing effects (thickness-boosting effect) of the ingredients to be evaluated. The organoleptic evaluation was performed by a four grade scoring method for initial taste, middle taste, and aftertaste (sensed in the periods of 0 to 1 second, 1 to 3 seconds, and 3 to 5 seconds after drinking, respectively, which periods are defined for a liquid) with scores of 0 to 3, wherein score 0 means no effect (i.e. strength of the thickness is the same as that of the control sample), score 1 means weakly effective, score 2 means effective, and score 3 means strongly effective.
(§2) As an evaluation system, milk coffee (“Birdy Robusta”, Ajinomoto Co., (Thailand) Ltd.) was used.
(§3) Organoleptic evaluation was performed for strength of “coffee-like thickness” of each sample by 2 persons of special panelists with the same criteria as those of Example 1 wherein score 0 was defined to mean the strength of thickness of each control sample, to determine thickness-enhancing effects (thickness-boosting effects) of the ingredients to be evaluated.

Assay [3] can be described thus: Organoleptic evaluation of coffee-like thickness in milk coffee with 0.6 ppm γ-Glu-Abu-Gly (Example 3). As to conditions: for thickness-enhancing effect for initial taste: milk coffee + 0.6 ppm γ-Glu-Abu-Gly, summary of Table 3; for Coffee-like thickness (initial taste) / Coffee-like thickness (middle to aftertaste): milk coffee + γ-Glu-Abu-Gly 0.6 ppm (control = score 0), score 0 to 3, L-tartaric acid 6 ppm, adipic acid 25 ppm, citric acid 3.5 ppm; for Coffee-like thickness (initial taste): 0 to 1 second; for Coffee-like thickness (middle to aftertaste): 1 to 5 seconds. As for the experimental part:
as §1, §2, §3

Assay [4] can be described thus: Organoleptic evaluation of thickness in cookie with 5 ppm γ-Glu-Val-Gly (Example 4). As to conditions: for Thickness-enhancing effect for the initial taste: cookie with 5 ppm γ-Glu-Val-Gly, text summary of Table 4; for Thickness (initial taste) / Thickness (middle to aftertaste): cookie, γ-Glu-Val-Gly 5 ppm in dough (control = score 0), score 0 to 3, L-tartaric acid 5 ppm, sodium L-tartrate 2 ppm, adipic acid 20 ppm, citric acid 1 ppm; for Thickness (initial taste): 0 to 4 seconds after eating; for Thickness (middle to aftertaste): 4 to 15 seconds after eating. Here is the method: Organoleptic evaluation was performed by 2 persons of special panelists for strength of “thickness” of each sample, to determine thickness-enhancing effects (thickness-boosting effect) of the ingredients to be evaluated. The organoleptic evaluation was performed by a four grade scoring method for initial taste, middle taste, and aftertaste (sensed in the periods of 0 to 4 second, 4 to 10 seconds, and 10 to 15 seconds after eating, respectively, which periods are defied for a solid) with scores of 0 to 3, wherein score 0 means no effect (i.e. strength of the thickness is the same as that of the control sample, score 1 means weakly effective, score 2 means effective, and score 3 means strongly effective.

The nature of assay [5]: Organoleptic evaluation of thickness in carbonated lemon drink with 15 ppm γ-Glu-Val-Gly (Example 2). As to conditions: for Thickness (initial taste) / Thickness (middle to aftertaste): carbonated lemon drink + 15 ppm γ-Glu-Val-Gly (control = score 0), score 0 to 3, L-tartaric acid 24 ppm, adipic acid 50 ppm, citric acid 3.5 ppm; for Thickness (initial taste): 0 to 1 second; for Thickness (middle to aftertaste): 1 to 5 seconds.

Assay [6] in a line: Organoleptic evaluation of salty taste-like thickness in potage soup with 2 ppm γ-Glu-Val-Gly (Example 2). As to conditions: for Salty taste-like thickness (initial taste) / Salty taste-like thickness (middle to aftertaste): potage soup + 2 ppm γ-Glu-Val-Gly (control = score 0), score 0 to 3, L-tartaric acid 6 ppm, adipic acid 25 ppm, citric acid 2 ppm; for Salty taste-like thickness (initial taste): 0 to 1 second; for Salty taste-like thickness (middle to aftertaste): 1 to 5 seconds.

The mark [7] stands for this setting: carbonated lemon drink + 15 ppm γ-Glu-Val-Gly, Table 2.
[8] abbreviates: potage soup + 2 ppm γ-Glu-Val-Gly, Table 2.

In the case of `O=C(O)CC(O)C(=O)O` (racemic) [DL-Malic acid], in assay [1], the “Coffee-like thickness (initial taste)” value is given as 0 and the “Coffee-like thickness (middle to aftertaste)” value was found to be 0.

Turning to `O=C(O)CCCCC(=O)O` [Adipic acid], in assay [1], the “Coffee-like thickness (initial taste)” value is 1.0, the “Coffee-like thickness (middle to aftertaste)” value came out at 0 and the “Thickness-enhancing effect for the initial taste” value is listed as “observed”. In assay [2], the “thickness-enhancing effect for initial taste” value is reported as “observed”, the “Coffee-like thickness (initial taste)” value came out at 1.0 and the “Coffee-like thickness (middle to aftertaste)” value came out at 0.5. Also, in assay [3], the “thickness-enhancing effect for initial taste” value is listed as “observed”, the “Coffee-like thickness (initial taste)” value is on record as 1.0 and the “Coffee-like thickness (middle to aftertaste)” value turned out to be 1.0. For the same molecule, in assay [4], the “Thickness-enhancing effect for the initial taste” value was “observed”, the “Thickness (initial taste)” value stood at 1.2 and the “Thickness (middle to aftertaste)” value is given as 1.0. In addition, in assay [5], the “Thickness (initial taste)” value is reported as 1.5 and the “Thickness (middle to aftertaste)” value is 0. Also, the “thickness-enhancing effect for initial taste” value in assay [5] (setting [7]) is on record as “observed”. Also, in assay [6], the “Salty taste-like thickness (initial taste)” value is 1.3 and the “Salty taste-like thickness (middle to aftertaste)” value was 0. In assay [6] (setting [8]), the “thickness-enhancing effect for initial taste” value is on record as “observed”.

In the case of `[Ca+2].[Cl-].[Cl-]` [Calcium chloride], in assay [1], the “Coffee-like thickness (initial taste)” value came to 0 and the “Coffee-like thickness (middle to aftertaste)” value worked out at 0.

With `O=C(O)CC(O)(CC(=O)O)C(=O)O` [Citric acid, reference compound], the “Coffee-like thickness (initial taste)” value in assay [1], in assay [2] and in assay [3] was 0 in each case. Moreover, the “Coffee-like thickness (middle to aftertaste)” value in assay [1], in assay [2] and in assay [3] was 0 throughout. The “Thickness (initial taste)” value in assay [4] and in assay [5] was 0 each time. Further, the “Thickness (middle to aftertaste)” value in assay [4] and in assay [5] was 0 in each case. Moreover, the thickness-enhancing effect result in assay [5] (setting [7]) and in assay [6] (setting [8]) was “not observed” throughout. Further, in assay [6], the “Salty taste-like thickness (initial taste)” value is listed as 0. Besides, the “Salty taste-like thickness (middle to aftertaste)” value in assay [6] is on record as 0.

As to `O=P([O-])([O-])O.[K+].[K+]` [Dipotassium hydrogenphosphate], in assay [1], the “Coffee-like thickness (initial taste)” value worked out at 0 and the “Coffee-like thickness (middle to aftertaste)” value was 1.0.

Consider `O=C(O)[C@H](O)[C@@H](O)C(=O)O` [L-Tartaric acid], for which, in assay [1], the “Coffee-like thickness (initial taste)” value came out at 1.5, the “Coffee-like thickness (middle to aftertaste)” value was found to be 0 and the “Thickness-enhancing effect for the initial taste” value is listed as “observed”. Besides, in assay [2], the “thickness-enhancing effect for initial taste” value is “observed”, the “Coffee-like thickness (initial taste)” value is reported as 1.5 and the “Coffee-like thickness (middle to aftertaste)” value was found to be 0. In addition, in assay [3], the “thickness-enhancing effect for initial taste” value is listed as “observed”, the “Coffee-like thickness (initial taste)” value is given as 1.5 and the “Coffee-like thickness (middle to aftertaste)” value is listed as 0. Moreover, in assay [4], the “Thickness-enhancing effect for the initial taste” value is on record as “observed”, the “Thickness (initial taste)” value is reported as 1.5 and the “Thickness (middle to aftertaste)” value turned out to be 1.0. In assay [5], the “Thickness (initial taste)” value worked out at 1.0 and the “Thickness (middle to aftertaste)” value is recorded as 0. The “thickness-enhancing effect for initial taste” value in assay [5] (setting [7]) is reported as “observed”. In assay [6], the “Salty taste-like thickness (initial taste)” value is given as 1.3 and the “Salty taste-like thickness (middle to aftertaste)” value came out at 0. Moreover, the “thickness-enhancing effect for initial taste” value in assay [6] (setting [8]) was “observed”.

`[Cl-].[Cl-].[Mg+2]` [Magnesium chloride]: in assay [1], the “Coffee-like thickness (initial taste)” value came to 0 and the “Coffee-like thickness (middle to aftertaste)” value is recorded as 0.

Regarding `O=P([O-])(O)O.[K+]` [Potassium dihydrogenphosphate], in assay [1], the “Coffee-like thickness (initial taste)” value was 0 and the “Coffee-like thickness (middle to aftertaste)” value is 0.5.

With `O=C(O)[C@@H]1CCCN1` [Proline], in assay [1], the “Coffee-like thickness (initial taste)” value is 0 and the “Coffee-like thickness (middle to aftertaste)” value worked out at 1.5.

On to `O=C([O-])[C@H](O)[C@@H](O)C(=O)[O-].[Na+].[Na+]` [Sodium L-tartrate], for which, in assay [4], the “Thickness (initial taste)” value was determined as 0.7 and the “Thickness (middle to aftertaste)” value worked out at 0.5.

For `O=C([O-])/C=C/C(=O)[O-].[Na+].[Na+]` [Sodium fumarate], in assay [1], the “Coffee-like thickness (initial taste)” value is on record as 0 and the “Coffee-like thickness (middle to aftertaste)” value came to 0.

Turning to `O=C(O)CCC(=O)O` [Succinic acid], in assay [1], the “Coffee-like thickness (initial taste)” value is listed as 0 and the “Coffee-like thickness (middle to aftertaste)” value was found to be 2.5.

As to `O=C([O-])CC(O)(CC(=O)[O-])C(=O)[O-].[Na+].[Na+].[Na+]` [Trisodium citrate], in assay [1], the “Coffee-like thickness (initial taste)” value stood at 0 and the “Coffee-like thickness (middle to aftertaste)” value was 0.
